Test [1] has as its target VHL co-expressed with Elongins B and C (Homo sapiens (Human), UniProt P40337). Nature of the test: Surface Plasmon Resonance Assay. Format: binding. Particulars: SPR measured VHL affinity; geometric mean where more than one measurement. The protocol:
Using a Biacore T200, […] tagged VHL co-expressed with Elongins B and C were immobilized to a Biacore SA chip in running buffer without DMSO. Compounds were tested individually at varying concentrations in running buffer (50 mM HEPES pH 7.2, 150 mM NaCl, 0.5 mM TCEP, 0.001% Tween 20, 0.2% PEG3350, 2% DMSO) at 20° C. Sensorgrams were run in order from low to high concentration using a flow rate of 80 μL/min. Association and disassociation times were varied depending on the estimated potency of the compound tested. […] Galdeano et al, J. Med. Chem. 2014, 57, 8657-8663, herein incorporated by reference) which retained greater than 75% of the activity over the course of the run. Analysis of the binding curves and determination of the kinetic parameters were done using evaluation software (Version 2.0, Biacore).
Background: Surface plasmon resonance follows binding to a sensor surface in real time, without labels.

The target in the next test is VHL Elongin B/C complex (Homo sapiens (Human), UniProt P40337). Kind of test: Fluorescence Polarization (FP) VHL Binding Assay. Particulars: for IC50: VHL binding, FP assay, geometric mean where more than one measurement. The protocol: The binding of test compounds to the VHL Elongin B/C complex was measured using a fluorescence polarization tracer competition assay. The VHL/Elongin B/C protein complex used in the assay was generated as follows. The coding region for amino acids E55-D213 of human VHL with N-terminal His6 tag with a TEV-protease cleavage site was co-expressed with Elongin B (residues M1-Q118) and Elongin C (Residues M17-C112) in E. coli. […] The purified VHL/Elongin B/C complex was dialyzed into formulation buffer: 20 mM Bis-Tris pH7.0, 150 mM NaCl, 1 mM DTT. A VHL fluorescence polarization probe (prepared in Example 91), consisted of a VHL ligand coupled to carboxytetramethylrhodamine (TAMRA); […] Compounds were prepared as a serial dilution in DMSO at a concentration 25-fold higher than the final desired concentration and acoustically dispensed (400 nl) into a ProxiPlate-384 Plus F, Black 384-shallow well Microplate (Part Number 6008260). DMSO was dispensed into wells designated for “VHL control” (without compound) wells. The “Assay Buffer” consisted of 50 mM Tris pH 8.0, 120 mM NaCl, 0.005% Nonidet P-40, and 1% DMSO (v/v). Assay Buffer containing […] VHL Elongin B/C complex was prepared and 5 μl dispensed using a BioRapTR (Beckman Coulter) into each well of the assay plate. Assay Buffer was also dispensed into “no VHL control” wells using the same method. A “pre-assay” fluorescence measurement was made using an Infinite® M1000 (Tecan) plate reader (Excitation 530 nm, Emission 574 nm, Bandwidth 10 nm). Assay Buffer containing 3.34 nM of the VHL FP probe was prepared in Assay Buffer and 5 μl dispensed into each well of the assay plate using a BioRapTR (Beckman Coulter). The final VHL/Elongin B/C protein concentration is 2.64 nM and the final probe concentration is 1.67 nM. Assay plates were briefly centrifuged and incubated for 1 hour at room temperature. “Post-assay” fluorescence polarization measurements were made as described for the “pre-assay” fluorescence measurement. Fluorescence polarization was calculated for each sample; taking into account the “pre-assay” fluorescence measurements and subtracting the fluorescence signal of the compound/VHL only (“pre-assay”) measurements from the “post-assay” fluorescence polarization measurements, for each plane of polarization. The data were analyzed using Genedata Screener software and normalized to the “no VHL control” and “VHL control” (without compound). IC50 values were calculated using a four parameter curve fit (Robust method).
(In general: Polarisation of emitted light reports the rotation of a fluorescent probe.)

pKd: −log10 of the molar value.

Chain of VHL co-expressed with Elongins B and C (P40337 whole entry, looked up): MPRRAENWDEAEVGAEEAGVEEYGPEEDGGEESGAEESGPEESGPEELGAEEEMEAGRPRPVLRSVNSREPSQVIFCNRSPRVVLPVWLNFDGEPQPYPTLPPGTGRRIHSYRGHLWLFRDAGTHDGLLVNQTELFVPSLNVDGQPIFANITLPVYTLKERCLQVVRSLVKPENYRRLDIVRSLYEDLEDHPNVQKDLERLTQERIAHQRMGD
Chain of VHL co-expressed with Elongins B and C (Q15370 whole entry partner, looked up): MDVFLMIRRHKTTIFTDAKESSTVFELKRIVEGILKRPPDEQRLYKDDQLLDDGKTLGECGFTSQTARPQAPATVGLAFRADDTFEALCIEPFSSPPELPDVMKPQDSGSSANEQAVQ
Chain of VHL co-expressed with Elongins B and C (Q15369 whole entry partner, looked up): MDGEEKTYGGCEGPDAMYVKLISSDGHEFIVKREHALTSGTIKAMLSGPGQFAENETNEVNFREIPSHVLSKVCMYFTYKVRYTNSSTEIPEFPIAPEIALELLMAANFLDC
Chain of VHL Elongin B/C complex (P40337 whole entry, looked up, the tested form may be a part): as the sequence (P40337 whole entry, looked up) above
Chain of VHL Elongin B/C complex (Q15370 whole entry partner, looked up, the tested form may be a part): as the sequence (Q15370 whole entry partner, looked up) above
Chain of VHL Elongin B/C complex (Q15369 whole entry partner, looked up, the tested form may be a part): as the sequence (Q15369 whole entry partner, looked up) above

As for `Cc1cc(C(C(=O)N2C[C@H](O)CC2C2=NC(=O)C(C)(c3ccc(-c4cccnc4C)cc3)N2)C(C)C)on1` (single isomer, unassigned) [Example 106.4], the affinity in test [1], expressed as Kd, was 0.895 µM. Besides, at VHL Elongin B/C complex, the IC50 (as a rule, the point on the concentration scale where inhibition reaches its midpoint) is 2.96 µM. As to `Cc1ncsc1-c1ccc([C@]2(C)NC(C3C[C@@H](O)CN3C(=O)C(c3cc(O)no3)C(C)C)=NC2=O)cc1` (single isomer, unassigned) [Example 116.2], in test [1], binding was characterised by a dissociation constant (Kd) of 150 µM. Turning to `CC(=O)N[C@H](C(=O)N1C[C@H](O)CC1C1=NC(=O)C(C)(c2ccc(Br)cc2)N1)C(C)(C)C` (single isomer, unassigned) [Example 101.1], the Kd (in general, the free concentration of one partner at which half of the binding sites on the other are occupied at equilibrium, for simple one-to-one binding) in test [1] was over 500 µM. For the same compound, at VHL Elongin B/C complex, the IC50 was over 200 µM. `Cc1cc(C(C(=O)N2C[C@H](O)CC2C2=NC(=O)C(C)(c3ccc(-c4cccnc4C)cc3)N2)C(C)C)on1` (single isomer, unassigned) [Example 106.3] had a Kd in test [1] of over 150 µM. In addition, the concentration for half-maximal inhibition (IC50) on VHL Elongin B/C complex is over 400 µM.

Turning to `Cc1cc(C(C(=O)N2C[C@H](O)CC2C2=NC(=O)C(C)(C)N2)C(C)C)on1` (single isomer, unassigned) [Example 107.1], the Kd in test [1] is over 150 µM. The same measure, in the same setting: with `CC(=O)N1CCC[C@H]1C(=O)N1C[C@H](O)CC1C1=NC(=O)[C@](C)(c2ccc(-c3scnc3C)cc2)N1` (single isomer, unassigned) [Example 121.2] the figure was at least 150 µM.

The compound `Cc1cc(C(C(=O)N2C[C@H](O)CC2C2=NC(=O)C(C)(C)N2)C(C)C)on1` (single isomer, unassigned) [Example 107.4] displayed a dissociation constant (Kd) in test [1] of over 150 µM. On VHL Elongin B/C complex, this compound showed an IC50 of over 50 µM. Compound `Cc1cc(C(C(=O)N2C[C@H](O)CC2C2=NC(=O)C(C)(c3ccc(-c4cccc(=O)n4C)cc3)N2)C(C)C)on1` (single isomer, unassigned) [Example 108.4] showed a Kd in test [1] of over 0.3 µM. The same compound showed an IC50 on VHL Elongin B/C complex of over 400 µM.

In test [1], `Cc1cc(C(C(=O)N2C[C@H](O)CC2C2=NC(=O)C(C)(c3ccc(-c4cccnc4)cc3)N2)C(C)C)on1` (single isomer, unassigned) [Example 105.2] had a Kd of 113 µM. The compound further showed an IC50 on VHL Elongin B/C complex of 136 µM. For `Cc1cc(C(C(=O)N2C[C@H](O)CC2C2=NC(=O)C(C)(c3ccc(-c4cccnc4)cc3)N2)C(C)C)on1` (single isomer, unassigned) [Example 105.4] the same measures were 1.58 µM and 5.39 µM. In test [1], `Cc1cc(C(C(=O)N2C[C@H](O)CC2C2=NC(=O)C(C)(c3ccc(-c4cccc(=O)n4C)cc3)N2)C(C)C)on1` (single isomer, unassigned) [Example 108.2] displayed a Kd of 3.95 µM. Besides, at VHL Elongin B/C complex, the IC50 turned out to be 11 µM. For `Cc1cc(C(C(=O)N2C[C@H](O)CC2C2=NC(=O)C(C)(c3ccc(-c4cccc(=O)n4C)cc3)N2)C(C)C)on1` (single isomer, unassigned) [Example 108.1] the same measures were 13.9 µM and 57.5 µM. In the case of `Cc1cc(C(C(=O)N2C[C@H](O)CC2C2=NC(=O)C(C)(c3ccc(-c4scnc4C)cc3)N2)C(C)C)on1` (single isomer, unassigned) [Example 104.4], in test [1], the Kd was determined as 0.171 µM. Besides, the IC50 on VHL Elongin B/C complex is 0.422 µM. Compound `CC(=O)N[C@H](C(=O)N1C[C@H](O)CC1C1=NC(=O)C(C)(c2ccc(Br)cc2)N1)C(C)(C)C` (single isomer, unassigned) [Example 101.4] had a Kd in test [1] of 26.7 µM. The compound further yielded an IC50 on VHL Elongin B/C complex of 108 µM. The matching figures for `Cc1cc(C(C(=O)N2C[C@H](O)CC2C2=NC(=O)C(C)(c3ccc(-c4cccnc4C)cc3)N2)C(C)C)on1` (single isomer, unassigned) [Example 106.1]: over 150 µM and over 400 µM. In test [1], `Cc1cc(C(C(=O)N2C[C@H](O)CC2C2=NC(=O)C(C)(C)N2)C(C)C)on1` (single isomer, unassigned) [Example 107.2] had a Kd of 14.9 µM. This compound came in with an IC50 at VHL Elongin B/C complex of 24.1 µM.

For the compound `Cc1cc(C(C(=O)N2C[C@H](O)CC2C2=NC(=O)C(C)(C)N2)C(C)C)on1` (single isomer, unassigned) [Example 107.3], the Kd in test [1] was over 150 µM. The compound also displayed an IC50 on VHL Elongin B/C complex of over 50 µM. On to `CC(=O)N[C@H](C(=O)N1C[C@H](O)CC1C1=NC(=O)C(C)(c2ccc(-c3scnc3C)cc2)N1)C(C)(C)C` (single isomer, unassigned) [Example 102.2], for which, in test [1], the affinity, expressed as Kd, was 43.8 µM. Moreover, on VHL Elongin B/C complex, the IC50 was found to be 93.1 µM. Turning to `Cc1cc([C@H](C(=O)N2C[C@H](O)C[C@H]2C(=O)NCc2ccc(-c3scnc3C)cc2OCCNC(=O)c2ccc3c(c2)C(=O)OC32c3ccc(N(C)C)cc3Oc3cc(N(C)C)ccc32)C(C)C)on1` [VHL fluorescence polarization probe, (2S,4R)—N-(2-(2-(3′,6′-bis(dimethylamino)-3-oxo-3H-spiro[isobenzofuran-1,9′-xanthene]-5-carboxamido)ethoxy)-4-(4-methylthiazol-5-yl)benzyl)-4-hydroxy-1-((R)-3-methyl-2-(3-methylisoxazol-5-yl)butanoyl)pyrrolidine-2-carboxamide, reference compound], the pKd (commonly the Kd on a negative log10 scale, so that one unit is a factor of ten) on VHL Elongin B/C complex (probe binding to VHL/Elongin B/C) is 7.74. As for `CC(=O)N[C@H](C(=O)N1C[C@H](O)CC1C1=NC(=O)C(C)(c2ccc(-c3scnc3C)cc2)N1)C(C)(C)C` (single isomer, unassigned) [Example 102.3], in test [1], binding was put at a Kd of 10.7 µM. Moreover, at VHL Elongin B/C complex, the half-maximal inhibitory concentration (IC50) was 43.3 µM. For `CC(=O)N[C@H](C(=O)N1C[C@H](O)CC1C1=NC(=O)C(C)(c2ccc(Br)cc2)N1)C(C)(C)C` (single isomer, unassigned) [Example 101.3], in test [1], the Kd is 332 µM. At VHL Elongin B/C complex, the IC50 is over 200 µM.

In test [1], `Cc1cc(C(C(=O)N2C[C@H](O)CC2C2=NC(=O)C(C)(c3ccc(-c4cccnc4C)cc3)N2)C(C)C)on1` (single isomer, unassigned) [Example 106.2] came in with a Kd of over 150 µM. This compound also came in with an IC50 on VHL Elongin B/C complex of over 400 µM. `Cc1cc([C@@H](C(=O)N2C[C@H](O)C[C@H]2C2=NOC(C)(c3ccccc3)N2)C(C)C)on1` (single isomer, unassigned) [Example 128.1]: the Kd in test [1] is at least 150 µM. In test [1], `Cc1ncsc1-c1ccc([C@]2(C)NC(C3C[C@@H](O)CN3C(=O)[C@H]3CCCN3S(C)(=O)=O)=NC2=O)cc1` (single isomer, unassigned) [Example 120.2] gave a Kd of at least 150 µM.

In test [1], `Cc1ncsc1-c1ccc([C@]2(C)NC(C3C[C@@H](O)CN3C(=O)[C@@H]3CCCN3S(C)(=O)=O)=NC2=O)cc1` (single isomer, unassigned) [Example 112.2] showed a Kd of 150 µM.

For the compound `Cc1ncsc1-c1ccc([C@]2(C)NC(C3C[C@@H](O)CN3C(=O)[C@H]3CCCN3S(C)(=O)=O)=NC2=O)cc1` (single isomer, unassigned) [Example 120.1], the Kd in test [1] was at least 150 µM. In turn, `Cc1cc([C@@H](C(=O)N2C[C@H](O)C[C@H]2C2=NOC(C)(c3ccccc3)N2)C(C)C)on1` (single isomer, unassigned) [Example 128.2] registered a dissociation constant (Kd) in test [1] of at least 150 µM. The compound `Cc1cc([C@@H](C(=O)N2C[C@H](O)C[C@H]2C2=NOC(C)(C)N2)C(C)C)on1` [Example 126.2, (S)-1-((2S,4R)-2-(5,5-dimethyl-4,5-dihydro-1,2,4-oxadiazol-3-yl)-4-hydroxypyrrolidin-1-yl)-3-methyl-2-(3-methylisoxazol-5-yl)butan-1-one] registered a Kd in test [1] of at least 150 µM.

As for `Cc1ncsc1-c1ccc([C@]2(C)NC(C3C[C@@H](O)CN3C(=O)C(c3cc(O)no3)C(C)C)=NC2=O)cc1` (single isomer, unassigned) [Example 116.3], the Kd in test [1] came to 150 µM.

The values above are taken from patent publication US11242344B2, “(4-hydroxypyrrolidin-2-yl)-heterocyclic compounds and methods of use thereof” (Genentech, Inc., priority 2017, dated 2022).
